Assay results reported in PMC8387413 (Bioorganic chemistry, 2021).
pEC50: −log10 of the molar value. Read-outs that look alike come from different tables or passages of the source.

Tests used:
[1] = tested on: γδ T cells; conditions: read-out: EC50 (γδ T cell stimulation), cited from earlier work
[2] = tested on: K562 cells; experiment: K562 viability; type: cell-based; conditions: for IC50: read-out: Toxicity IC50 μM (95% CI); for direct toxicity (in words): K562 cells, 72 hours of exposure, doses of 100 μM or lower
[3] = tested on: γδ T cells; experiment: T cell proliferation: expansion of γδ T cells from human PBMCs, flow cytometry; type: cell-based; conditions: for EC50: read-out: Proliferation EC50 μM (95% CI)
[4] = tested on: γδ T cells; type: cell-based; conditions: Homo sapiens, K562, read-out: ELISA EC50 μM (95% CI)
[5] = K562 leukemia cells, 72 hours exposure, n=3

| Structure (SMILES) | IC50 [2, 5] [µM] | EC50 ([3]; Homo sapiens, T-cell) [µM] | EC50 [4] [µM] | IC50 ([2]; Homo sapiens, K562, 72 h) [µM] | also measured |
| --- | --- | --- | --- | --- | --- |
| C/C(=C\COP(=O)(O)OP(=O)(O)O)CO [HMBPP, (E)-4-hydroxy-3-methyl-but-2-enyl diphosphate] | – | – | – | – | pEC50 ([1]; in our assays): ~9.30 |
| C/C(=C\CCP(=O)(O)Oc1ccc2ccc(=O)oc2c1)CO [Compound 17] | > 100 | – | – | – | – |
| COP(=O)(CC/C=C(\C)CO)Oc1ccc2ccc(=O)oc2c1 (stereo not drawn) [Compound 16, (E)-Methyl (2-oxo-2H-chromen-7-yl)(5-hydroxy-4-methylpent-3-en-1-yl)phosphonate] | > 100 | – | – | – | – |
| COP(=O)(CC/C=C(\C)CO)OCOC(=O)c1ccc(/N=N/c2ccc(N(C)C)cc2)cc1 (stereo not drawn) [Compound 14, ((((E)-5-Hydroxy-4-methylpent-3-en-1-yl)(methoxy)phosphoryl)oxy)methyl 4-((E)-(4-(dimethylamino)phenyl)diazenyl)benzoate] | – | 0.099 | 0.11 | 36 | pEC50 ([3]; Homo sapiens, T-cell, read-out: EC50 for stimulation of γδ T cells): 6.96; direct toxicity (in words) [2]: toxic at 100 μM |
| COc1ccc2cc(C(=O)NCCc3ccc(OP(=O)(CC/C=C(\C)COC(C)=O)OCOC(=O)c4ccc(/N=N/c5ccc(N(C)C)cc5)cc4)cc3)c(=O)oc2c1 (stereo not drawn) [Compound 23] | > 100 | – | – | – | – |
| C/C(=C\CCP(=O)(O)O)CO [C-HMBP] | – | – | – | – | pEC50 [1]: ~5.40 |
| C/C(=C\CCP(=O)(OCOC(=O)c1ccc(/N=N/c2ccc(N(C)C)cc2)cc1)Oc1ccc2ccc(=O)oc2c1)CO (stereo not drawn) [Compound 18, ((((E)-5-Hydroxy-4-methylpent-3-en-1-yl) ((2-oxo-2H-chromen-7-yl)oxy)phosphoryl)oxy)methyl 4-((E)-(4-(dimethylamino)phenyl)diazenyl)benzoate] | – | 0.0005 | 0.0075 | 27 | direct toxicity (in words) [2]: toxic at 100 μM |
| COc1ccc2cc(C(=O)NCCc3ccc(OP(=O)(CC/C=C(\C)COC(C)=O)OC)cc3)c(=O)oc2c1 (stereo not drawn) [Compound 22, (E)-5-(Methoxy(4-(2-(7-methoxy-2-oxo-2H-chromene-3-carboxamido)ethyl)phenoxy)phosphoryl) -2-methylpent-2-en-1-yl acetate] | – | 5.8 | > 10 | > 100 | stimulation of proliferation (in words) ([3]; γδ T cells from human PBMCs): did not indicate substantial stimulation of proliferation |
